# Data published in patent publication US4782151A, “Polyprenyl compound and pharmaceutical use” (Eisai Co., Ltd., priority 1984, dated 1988).
# Experiments:
# [1] = tested on: Pyloric Ligation Ulcer; assay: Effect on Pyloric Ligation Ulcer; assay type: in vivo, Wistar strain male rats; parameters: key to Grade Index G.I. mean ± S.E.: ulcer grade 0–V by eye; larger = more ulcers, V = perforation
# Experimental: According to the method of Shay et al. described in Gastroenterology, Vol 5, p. 43 (1945), Wistar strain male rats each weighing about 300 g were not given any diet for 48 hours, and then their pyloric segments were ligated. After 15 hours, the abdomen of each of the rats was opened, and the stomach was excised. The stomach was cut open along the side of the greater curvature, and the ulcers developed on the fore-stomach were classified and evaluated with the naked eye into five stages. The larger ulcer index means the more ulcers and index V refers to an example of perforation. The medicines were evaluated by determining their mean ±standard error. […] Cimetidine and propantheline were selected as control medicines.
# (Note) In Table 2, Grade Index was evaluated on the basis of the size,
# number, and severity of ulcers.
# [2] = tested on: gastric acid secretion; assay: Gastric acid secretion inhibiting effect (pylorus-ligated rats, method of Shay); assay type: in vivo, Wistar strain male rats; settings: for inhibition in vivo at 100 mg/kg: Rattus norvegicus, 100 mg/μg (so in the source), to the duodenum during pyloric ligation, 4 hours, vs control group
# Experimental: According to the method of H. Shay et a. described in Gastroenterology, Vol. 5, p. 43 (1945), Wistar strain male rats each weighing about 200 g were not given any diet for 24 hours, and their pyloric segments were ligated under etherization. After four hours, the stomachs were excised under deep etherization, and the contents of the stomachs were collected. After determination of the amount, the gastric juice was centrifuged at 3,000 rpm for 10 minutes and the supernatant liquid was titrated by neutralization (at a pH 7.0) with N/50-NaOH by means of an automatic titrator (TTA 81, Radiometer, Copenhagen) to determine the acidity. The amount of the acid which had been secreted for four hours was calculated from the volume of the gastric juice and the acidity. The results are represented in terms of % inhibition with respect to the control group. Each of the compounds tested was emulsified in a 25% decaglyn mixture (polyglycerin fatty acid ester), and 100 mg/μg (dose 0.2 ml/100 g weight) was administered to the duodenum during the ligation of the pyloric segment. In the control group, only the solvent was administered.
# [3] = tested on: Ethanol-Induced Ulcer; assay: Effect on Ethanol-Induced Ulcer; assay type: in vivo, Wistar male rats
# Experimental: According to the method of Robert et al., 1 ml/rat of absolute ethanol was administered orally to each of Wistar male rats. After one hour, the stomach of each rat was excised, 10 ml of physiologically saline solution was injected into the stomach, and the stomach was soaked in 5% neutral formalin. Each stomach was cut open along the side of the greater curvature, and the ulcers developed on the glandular stomach were measured for their lengths and the total sum of the lengths was defined as ulcer index.
# Compound B, i.e. N-(2,6,10,14-tetramethyl-18-oxo-2,6,10,14-nonadecatetraenoyl)diethylamine,and compound F, i.e. N-(2,6,10,14-tetramethyl-18-oxo-2,6,10,14-nonadecatetraenoyl)pyrrolidine, were selected as test compounds and emulsified in 2.5% decaglyn mixture, and 12.5 to 100 mg/kg (dose volume 0.2 ml/100 g-weight) was administered orally 30 minutes before administration of ethanol.
# [4] = in vivo; settings: mouse, po
# [5] = 100 mg/kg, 15 hours after pylorus ligation
# [6] = 100 mg/kg, N 4 (Compound B), N 10 (Cimetidine)
# [7] = 12.5 mg/kg orally 30 minutes before ethanol
# [8] = 25 mg/kg orally 30 minutes before ethanol
# [9] = 50 mg/kg orally 30 minutes before ethanol
# [10] = 100 mg/kg orally 30 minutes before ethanol
structure (smiles),measurement,setting,value
"CN/C(=N/CCSCc1nc[nH]c1C)NC#N [Cimetidine, reference compound]",Grade Index G.I. mean ± S.E.,[1]; [5],3.3 ± 0.7
same,Grade Index 0 (number of animals),[1]; [6],2
same,Grade Index I (number of animals),[1]; [6],0
same,Grade Index II (number of animals),[1]; [6],1
same,Grade Index III (number of animals),[1]; [6],2
same,Grade Index IV (number of animals),[1]; [6],0
same,Grade Index V (number of animals; perforation),[1]; [6],5
CC(=O)CCC=C(C)CCC=C(C)CCC=C(C)CCC=C(C)C(=O)N1CCOCC1 [Compound A],inhibition in vivo at 100 mg/kg,[2],52.9%
"CCN(CC)C(=O)C(C)=CCCC(C)=CCCC(C)=CCCC(C)=CCCC(C)=O [Compound B, N-(2,6,10,14-tetramethyl-18-oxo-2,6,10,14-nonadecatetraenoyl)diethylamine]",inhibition in vivo at 100 mg/kg,[2],83.5%
same,action of inhibiting acid secretion (in words),"[2]; rat, in vivo",powerful action of inhibiting acid secretion
same,Grade Index 0 (number of animals),"[1]; 25 mg/kg, N 6",2
same,Grade Index I (number of animals),"[1]; 25 mg/kg, N 6",1
same,Grade Index II (number of animals),"[1]; 25 mg/kg, N 6",2
same,Grade Index III (number of animals),"[1]; 25 mg/kg, N 6",0
same,Grade Index IV (number of animals),"[1]; 25 mg/kg, N 6",0
same,Grade Index V (number of animals; perforation),"[1]; 25 mg/kg, N 6",1
same,Grade Index G.I. mean ± S.E.,"[1]; 25 mg/kg, to the duodenum during pylorus ligation, 15 hours",1.7 ± 0.7
same,Grade Index 0 (number of animals),"[1]; 50 mg/kg, N 6",2
same,Grade Index I (number of animals),"[1]; 50 mg/kg, N 6",3
same,Grade Index II (number of animals),"[1]; 50 mg/kg, N 6",0
same,Grade Index III (number of animals),"[1]; 50 mg/kg, N 6",0
same,Grade Index IV (number of animals),"[1]; 50 mg/kg, N 6",0
same,Grade Index V (number of animals; perforation),"[1]; 50 mg/kg, N 6",1
same,Grade Index G.I. mean ± S.E.,"[1]; 50 mg/kg, to the duodenum during pylorus ligation, 15 hours",1.3 ± 0.8
same,Grade Index G.I. mean ± S.E.,[1]; [5],0.0 ± 0.0
same,Grade Index 0 (number of animals),[1]; [6],4
same,Grade Index I (number of animals),[1]; [6],0
same,Grade Index II (number of animals),[1]; [6],0
same,Grade Index III (number of animals),[1]; [6],0
same,Grade Index IV (number of animals),[1]; [6],0
same,Grade Index V (number of animals; perforation),[1]; [6],0
same,Grade Index 0 (number of animals),"[1]; 200 mg/kg, N 4",4
same,Grade Index I (number of animals),"[1]; 200 mg/kg, N 4",0
same,Grade Index II (number of animals),"[1]; 200 mg/kg, N 4",0
same,Grade Index III (number of animals),"[1]; 200 mg/kg, N 4",0
same,Grade Index IV (number of animals),"[1]; 200 mg/kg, N 4",0
same,Grade Index V (number of animals; perforation),"[1]; 200 mg/kg, N 4",0
same,Grade Index G.I. mean ± S.E.,"[1]; 200 mg/kg, to the duodenum during pylorus ligation, 15 hours",0.0 ± 0.0
same,Inhibition (%) of ulcer index,[3]; [7],82.6%
same,Ulcer Index Mean ± S.E. (mm),[3]; [7],10.1 ± 5.9 mm
same,Inhibition (%) of ulcer index,[3]; [8],97.6%
same,Ulcer Index Mean ± S.E. (mm),[3]; [8],1.4 ± 1.0 mm
same,Inhibition (%) of ulcer index,[3]; [9],90.4%
same,Ulcer Index Mean ± S.E. (mm),[3]; [9],5.6 ± 2.9 mm
same,Inhibition (%) of ulcer index,[3]; [10],97.8%
same,Ulcer Index Mean ± S.E. (mm),[3]; [10],1.3 ± 1.0 mm
CCNC(=O)C(C)=CCCC(C)=CCCC(C)=CCCC(C)=CCCC(C)=O [Compound C],inhibition in vivo at 100 mg/kg,[2],63.2%
CC(=O)CCC=C(C)CCC=C(C)CCC=C(C)CCC=C(C)C(=O)N(C)C [Compound D],inhibition in vivo at 100 mg/kg,[2],52.6%
same,LD50,[4],> 5000 mg/kg
CC(=O)CCC=C(C)CCC=C(C)CCC=C(C)CCC=C(C)C(=O)N(CCO)CCO [Compound E],inhibition in vivo at 100 mg/kg,[2],52.2%
"CC(=O)CCC=C(C)CCC=C(C)CCC=C(C)CCC=C(C)C(=O)N1CCCC1 [Compound F, N-(2,6,10,14-tetramethyl-18-oxo-2,6,10,14-nonadecatetraenoyl)pyrrolidine]",inhibition in vivo at 100 mg/kg,[2],76.1%
same,Inhibition (%) of ulcer index,[3]; [7],63.2%
same,Ulcer Index Mean ± S.E. (mm),[3]; [7],21.4 ± 8.2 mm
same,Inhibition (%) of ulcer index,[3]; [8],94.8%
same,Ulcer Index Mean ± S.E. (mm),[3]; [8],3.0 ± 1.9 mm
same,Inhibition (%) of ulcer index,[3]; [9],85.7%
same,Ulcer Index Mean ± S.E. (mm),[3]; [9],8.3 ± 3.4 mm
same,Inhibition (%) of ulcer index,[3]; [10],97.1%
same,Ulcer Index Mean ± S.E. (mm),[3]; [10],1.7 ± 0.9 mm
same,LD50,[4],> 5000 mg/kg
CC(=O)CCC=C(C)CCC=C(C)CCC=C(C)CCC=C(C)C(=O)n1ccnc1 [Compound H],inhibition in vivo at 100 mg/kg,[2],49.1%
CC(=O)CCC=C(C)CCC=C(C)CCC=C(C)CCC=C(C)C(=O)N1CC=CC1 [Compound I],inhibition in vivo at 100 mg/kg,[2],43.9%
CC(=O)CCC=C(C)CCC=C(C)CCC=C(C)CCC=C(C)CNC(C)=O [Compound J],inhibition in vivo at 100 mg/kg,[2],53%
CCC(=O)NCC(C)=CCCC(C)=CCCC(C)=CCCC(C)=CCCC(C)=O [Compound K],inhibition in vivo at 100 mg/kg,[2],50.2%
CCN(CC(C)=CCCC(C)=CCCC(C)=CCCC(C)=CCCC(C)=O)C(C)=O [Compound L],inhibition in vivo at 100 mg/kg,[2],62.6%
CCOC(=O)C=C(C)CCC=C(C)CCC=C(C)CCC=C(C)C(=O)N(CC)CC [Compound M],inhibition in vivo at 100 mg/kg,[2],80.6%
"CC(C)[N+](C)(CCOC(=O)C1c2ccccc2Oc2ccccc21)C(C)C [Propantheline bromide, reference compound]",Grade Index 0 (number of animals),"[1]; 30 mg/kg, N 10",8
same,Grade Index I (number of animals),"[1]; 30 mg/kg, N 10",2
same,Grade Index II (number of animals),"[1]; 30 mg/kg, N 10",0
same,Grade Index III (number of animals),"[1]; 30 mg/kg, N 10",0
same,Grade Index IV (number of animals),"[1]; 30 mg/kg, N 10",0
same,Grade Index V (number of animals; perforation),"[1]; 30 mg/kg, N 10",0
same,Grade Index G.I. mean ± S.E.,"[1]; 30 mg/kg, 15 hours after pylorus ligation",0.2 ± 0.1
